From ChEMBL document CHEMBL5046281, “N-Aryl Mercaptopropionamides as Broad-Spectrum Inhibitors of Metallo-β-Lactamases” (J Med Chem, 2022)
The source made the active and inactive calls. No cut-off for these calls is given here.

Assays:
Escherichia coli [1] = assay: Potentiation of imipenem-induced antibacterial activity against NDM-1 producing Escherichia coli assessed as imipenem MIC at 128 ug/ml by microdilution method (reference value: 128 ug/ml); format: functional; details: dose 128 µg/ml
Enterobacter cloacae [2] = assay: Potentiation of imipenem-induced antibacterial activity against GIM-1 producing Enterobacter cloacae T2218 clinical isolates assessed as imipenem MIC at 128 mg/l by microdilution method; format: functional
Escherichia coli [3] = assay: Potentiation of imipenem-induced antibacterial activity against NDM-1 producing Escherichia coli assessed as imipenem MIC at 16 ug/ml by microdilution method (reference value: 128 ug/ml); format: functional; details: dose 16 µg/ml
Escherichia coli [4] = assay: Potentiation of imipenem-induced antibacterial activity against NDM-5 producing Escherichia coli T2351 clinical isolates assessed as imipenem MIC at 128 mg/l by microdilution method; format: functional
HEK293 = assay: Cytotoxicity against human HEK293 cells assessed as reduction in cell viability at 100 uM relative to control; format: toxicity, cell-based; details: hek293, 100 µM
[5] = Selectivity ratio of MIC for antibacterial activity against VIM-1 producing Enterobacter cloacae T2353 clinical isolates to MIC for potentiation of imipenem-induced antibacterial activity against VIM-1 producing Enterobacter cloacae T2353 clinical isolates assessed as imipenem MIC at 128 mg/l; format: functional
Escherichia coli [6] = assay: Potentiation of imipenem-induced antibacterial activity against NDM-1 producing Escherichia coli assessed as fold change in imipenem MIC at 16 ug/ml by microdilution method; format: functional; details: dose 16 µg/ml
[7] = target: T1, Matrix metalloproteinase-14 (Homo sapiens, UniProt P50281); assay: Inhibition of human MMP-14
[8] = Lipophilicity, log D of the compound at pH 7.4 by HPLC-MS analysis; format: physicochemical; details: buffer
Escherichia coli [9] = assay: Potentiation of imipenem-induced antibacterial activity against NDM-1 producing Escherichia coli assessed as imipenem MIC at 8 ug/ml by microdilution method (reference value: 128 ug/ml); format: functional; details: dose 8 µg/ml
[10] = Selectivity ratio of MIC for antibacterial activity against IMP-1 producing Pseudomonas aeruginosa T2325 clinical isolates to MIC for potentiation of imipenem-induced antibacterial activity against IMP-1 producing Pseudomonas aeruginosa T2325 clinical isolates assessed as imipenem MIC at 128 mg/l; format: functional
Escherichia coli [11] = assay: Antibacterial activity against NDM-1 expressing Escherichia coli isolates assessed as inhibition of bacterial growth by microdilution method; format: functional, organism-based
Pseudomonas aeruginosa [12] = assay: Potentiation of imipenem-induced antibacterial activity against VIM-1 producing Pseudomonas aeruginosa T2357 clinical isolates assessed as imipenem MIC at 128 mg/l by microdilution method; format: functional
Escherichia coli [13] = assay: Potentiation of imipenem-induced antibacterial activity against NDM-1 producing Escherichia coli assessed as fold change in imipenem MIC at 8 ug/ml by microdilution method; format: functional; details: dose 8 µg/ml
Serratia marcescens = assay: Potentiation of imipenem-induced antibacterial activity against NDM-1 producing Serratia marcescens T2352 clinical isolates assessed as imipenem MIC at 128 mg/l by microdilution method; format: functional
Escherichia coli [14] = assay: Potentiation of imipenem-induced antibacterial activity against NDM-1 producing Escherichia coli assessed as fold change in imipenem MIC at 32 ug/ml by microdilution method; format: functional; details: dose 32 µg/ml
Pseudomonas aeruginosa [15] = assay: Antibacterial activity against VIM-2 expressing Pseudomonas aeruginosa isolates assessed as inhibition of bacterial growth by microdilution method; format: functional, organism-based
[16] = Selectivity ratio of MIC for antibacterial activity against NDM-7 producing Escherichia coli T2239 clinical isolates to MIC for potentiation of imipenem-induced antibacterial activity against NDM-7 producing Escherichia coli T2239 clinical isolates assessed as imipenem MIC at 128 mg/l; format: functional
Enterobacter cloacae [17] = assay: Potentiation of imipenem-induced antibacterial activity against VIM-1 producing Enterobacter cloacae T2353 clinical isolates assessed as imipenem MIC at 128 mg/l by microdilution method; format: functional
Pseudomonas aeruginosa [18] = assay: Inhibition of Pseudomonas aeruginosa quorum sensing system LasB at 100 uM
Escherichia coli [19] = assay: Potentiation of imipenem-induced antibacterial activity against NDM-1 producing Escherichia coli assessed as fold change in imipenem MIC at 2 ug/ml by microdilution method; format: functional; details: dose 2 µg/ml
Klebsiella pneumoniae [20] = assay: Antibacterial activity against imipenem-resistant NDM-1-producing Klebsiella pneumoniae T2301 at 128 mg/L measured after 24 hrs in presence of imipenem by time-kill assay; format: functional, organism-based
[21] = target: Disintegrin and metalloproteinase domain-containing protein 17 (Homo sapiens) (UniProt P78536); assay: Inhibition of human TACE at 100 uM relative to control
[22] = Selectivity ratio of MIC for antibacterial activity against KPC-2 producing Escherichia coli T2435 clinical isolates to MIC for potentiation of imipenem-induced antibacterial activity against KPC-2 producing Escherichia coli T2435 clinical isolates assessed as imipenem MIC at 128 mg/l; format: functional
Escherichia coli [23] = assay: Potentiation of imipenem-induced antibacterial activity against NDM-1 producing Escherichia coli assessed as imipenem MIC at 32 ug/ml by microdilution method (reference value: 128 ug/ml); format: functional; details: dose 32 µg/ml
Escherichia coli [24] = assay: Potentiation of imipenem-induced antibacterial activity against NDM-1 producing Escherichia coli assessed as fold change in imipenem MIC at 4 ug/ml by microdilution method; format: functional; details: dose 4 µg/ml
HepG2 = assay: Cytotoxicity against human HepG2 cells assessed as reduction in cell viability at 100 uM relative to control; format: toxicity, cell-based; details: hepg2, 100 µM
Pseudomonas aeruginosa [25] = assay: Potentiation of imipenem-induced antibacterial activity against IMP-1 producing Pseudomonas aeruginosa T2325 clinical isolates assessed as imipenem MIC at 128 mg/l by microdilution method; format: functional
Escherichia coli [26] = assay: Antibacterial activity against VIM-1 expressing Escherichia coli isolates assessed as inhibition of bacterial growth by microdilution method; format: functional, organism-based
Klebsiella pneumoniae [27] = assay: Antibacterial activity against imipenem-resistant NDM-1-producing Klebsiella pneumoniae T2301 infected in Galleria mellonella larvae assessed as survival rate at 38.4 ug injected via proleg measured after 1 day by Kaplan-Meier method; format: functional; details: dose 38.4 µg
[28] = Selectivity ratio of MIC for antibacterial activity against NDM-5 producing Escherichia coli T2351 clinical isolates to MIC for potentiation of imipenem-induced antibacterial activity against NDM-5 producing Escherichia coli T2351 clinical isolates assessed as imipenem MIC at 128 mg/l; format: functional
Escherichia coli [29] = assay: Potentiation of imipenem-induced antibacterial activity against NDM-1 producing Escherichia coli assessed as imipenem MIC at 4 ug/ml by microdilution method (reference value: 128 ug/ml); format: functional; details: dose 4 µg/ml
[30] = target: T1, Matrix metalloproteinase-14; assay: Inhibition of human MMP-14 at 100 uM relative to control
[31] = Inhibition of Escherichia coli NDM-1 using fluorocillin as substrate incubated for 30 mins by fluorescence based assay
Escherichia coli [32] = assay: Antibacterial activity against IMP-1 expressing Escherichia coli isolates assessed as inhibition of bacterial growth by microdilution method; format: functional, organism-based

Disintegrin and metalloproteinase domain-containing protein 17 (Homo sapiens), sequence (P78536 whole entry, the tested form may be a part): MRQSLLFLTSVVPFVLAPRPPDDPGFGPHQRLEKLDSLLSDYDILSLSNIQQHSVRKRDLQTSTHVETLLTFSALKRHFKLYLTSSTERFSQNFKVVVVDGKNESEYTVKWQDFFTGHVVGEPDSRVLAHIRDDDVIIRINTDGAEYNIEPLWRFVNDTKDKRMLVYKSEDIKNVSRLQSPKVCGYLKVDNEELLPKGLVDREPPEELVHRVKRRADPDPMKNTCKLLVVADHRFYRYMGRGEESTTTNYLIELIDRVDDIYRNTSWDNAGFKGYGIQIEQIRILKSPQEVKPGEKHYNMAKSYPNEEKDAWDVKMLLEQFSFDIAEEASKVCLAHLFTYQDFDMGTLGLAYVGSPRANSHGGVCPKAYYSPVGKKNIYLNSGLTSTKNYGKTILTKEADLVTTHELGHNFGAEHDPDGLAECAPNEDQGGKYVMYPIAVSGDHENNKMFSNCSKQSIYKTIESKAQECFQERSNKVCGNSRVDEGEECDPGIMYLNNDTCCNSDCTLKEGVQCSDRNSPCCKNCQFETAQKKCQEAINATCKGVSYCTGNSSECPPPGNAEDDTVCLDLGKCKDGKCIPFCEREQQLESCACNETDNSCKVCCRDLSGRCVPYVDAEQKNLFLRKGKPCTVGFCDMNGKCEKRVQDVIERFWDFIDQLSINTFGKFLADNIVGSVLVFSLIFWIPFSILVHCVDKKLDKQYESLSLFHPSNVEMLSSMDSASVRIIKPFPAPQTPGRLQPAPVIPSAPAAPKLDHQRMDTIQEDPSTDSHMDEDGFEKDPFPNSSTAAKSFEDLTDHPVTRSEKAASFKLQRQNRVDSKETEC

In the case of `O=C(CCS)Nc1cccc(C(=O)O)c1`, the MIC (Escherichia coli [1]) is reported as ≤ 0.5 µg/mL, the MIC (Enterobacter cloacae [2]) is reported as 2 µg/mL and the MIC (Escherichia coli [3]) is reported as 64 µg/mL. For the same compound, the MIC (Escherichia coli [4]) was 2 µg/mL, the Activity (HEK293) was < 10% and the Ratio [5] was 2. The “fold change (FC)” value (Escherichia coli [6]) was 2, the IC50 [7] was 68 µM and the logD [8] was -0.96. For the same compound, the MIC (Escherichia coli [9]) was 64 µg/mL, the Ratio [10] was 1 and the Activity (Escherichia coli [11]) was “inactive”. The MIC (Pseudomonas aeruginosa [12]) was 256 µg/mL, the “fold change (FC)” value (Escherichia coli [13]) was 2 and the MIC (Serratia marcescens) was 4 µg/mL. The “fold change (FC)” value (Escherichia coli [14]) was 16, the Activity (Pseudomonas aeruginosa [15]) was “inactive” and the Ratio [16] was 16. The MIC (Enterobacter cloacae [17]) was 2 µg/mL, the inhibition (Pseudomonas aeruginosa [18]) was “Active” and the “fold change (FC)” value (Escherichia coli [19]) was 1. The Activity (Klebsiella pneumoniae [20]) was “Active”, the inhibition [21] was < 10% and the Ratio [22] was 1. The MIC (Escherichia coli [23]) was 8 µg/mL, the “fold change (FC)” value (Escherichia coli [24]) was 1 and the Activity (HepG2) was < 10%. The MIC (Pseudomonas aeruginosa [25]) was 16 µg/mL, the Activity (Escherichia coli [26]) was “inactive” and the Activity (Klebsiella pneumoniae [27]) was <20%. The Ratio [28] was 4, the MIC (Escherichia coli [29]) was 128 µg/mL and the inhibition [30] was 61%. The IC50 [31] was 4 µM and the Activity (Escherichia coli [32]) was “inactive”.
